Laboratory results taken from the NIST ThermoML archive (doi:10.1021/je034290l).

Key:
[1] = excess molar enthalpy (molar enthalpy of mixing); xn = mol fraction of the nth substance listed; details: 101.32 kPa, Liquid, Calvet calorimetry
[2] = xn = mol fraction of the nth substance listed; details: 101.32 kPa, Liquid

CCC(=O)OC [methyl propanoate] + CC(C)(C)O
Details	excess molar enthalpy [kcal/mol]	excess molar volume [m3/mol]
[1], 299.15 K, x1 = 0.0603	0.1	–
[1], 299.15 K, x1 = 0.1414	0.213	–
[1], 299.15 K, x1 = 0.2285	0.317	–
[1], 299.15 K, x1 = 0.3164	0.395	–
[1], 299.15 K, x1 = 0.3971	0.442	–
[1], 299.15 K, x1 = 0.4573	0.461	–
[1], 299.15 K, x1 = 0.4705	0.464	–
[1], 299.15 K, x1 = 0.5159	0.467	–
[1], 299.15 K, x1 = 0.5343	0.465	–
[1], 299.15 K, x1 = 0.5899	0.453	–
[1], 299.15 K, x1 = 0.6328	0.435	–
[1], 299.15 K, x1 = 0.6447	0.428	–
[1], 299.15 K, x1 = 0.7116	0.387	–
[1], 299.15 K, x1 = 0.7778	0.328	–
[1], 299.15 K, x1 = 0.8496	0.244	–
[1], 299.15 K, x1 = 0.9351	0.115	–
[1], 318.15 K, x1 = 0.0486	0.0779	–
[1], 318.15 K, x1 = 0.1007	0.153	–
[1], 318.15 K, x1 = 0.1707	0.24	–
[1], 318.15 K, x1 = 0.2374	0.31	–
[1], 318.15 K, x1 = 0.3021	0.364	–
[1], 318.15 K, x1 = 0.3578	0.4	–
[1], 318.15 K, x1 = 0.4076	0.425	–
[1], 318.15 K, x1 = 0.4404	0.439	–
[1], 318.15 K, x1 = 0.4827	0.445	–
[1], 318.15 K, x1 = 0.5312	0.45	–
[1], 318.15 K, x1 = 0.582	0.441	–
[1], 318.15 K, x1 = 0.6358	0.423	–
[1], 318.15 K, x1 = 0.6986	0.393	–
[1], 318.15 K, x1 = 0.7666	0.336	–
[1], 318.15 K, x1 = 0.8289	0.272	–
[1], 318.15 K, x1 = 0.8931	0.189	–
[1], 318.15 K, x1 = 0.9582	0.0935	–
[2], 303.15 K, x1 = 0.0517	–	1.52e-07
[2], 303.15 K, x1 = 0.1081	–	2.93e-07
[2], 303.15 K, x1 = 0.1525	–	3.88e-07
[2], 303.15 K, x1 = 0.202	–	4.71e-07
[2], 303.15 K, x1 = 0.2516	–	5.43e-07
[2], 303.15 K, x1 = 0.3129	–	6.1e-07
[2], 303.15 K, x1 = 0.3638	–	6.48e-07
[2], 303.15 K, x1 = 0.406	–	6.67e-07
[2], 303.15 K, x1 = 0.4603	–	6.78e-07
[2], 303.15 K, x1 = 0.5167	–	6.79e-07
[2], 303.15 K, x1 = 0.5558	–	6.68e-07
[2], 303.15 K, x1 = 0.6086	–	6.41e-07
[2], 303.15 K, x1 = 0.6546	–	6.07e-07
[2], 303.15 K, x1 = 0.7197	–	5.43e-07
[2], 303.15 K, x1 = 0.752	–	4.91e-07
[2], 303.15 K, x1 = 0.8122	–	4.15e-07
[2], 303.15 K, x1 = 0.8545	–	3.48e-07
[2], 303.15 K, x1 = 0.9065	–	2.53e-07
[2], 303.15 K, x1 = 0.9394	–	1.73e-07
[2], 318.15 K, x1 = 0.075	–	1.94e-07
[2], 318.15 K, x1 = 0.1476	–	3.15e-07
[2], 318.15 K, x1 = 0.1952	–	4.16e-07
[2], 318.15 K, x1 = 0.2636	–	4.98e-07
[2], 318.15 K, x1 = 0.3159	–	5.59e-07
[2], 318.15 K, x1 = 0.3628	–	6.06e-07
[2], 318.15 K, x1 = 0.4165	–	6.39e-07
[2], 318.15 K, x1 = 0.4931	–	6.48e-07
[2], 318.15 K, x1 = 0.5472	–	6.41e-07
[2], 318.15 K, x1 = 0.6296	–	6.09e-07
[2], 318.15 K, x1 = 0.6429	–	5.87e-07
[2], 318.15 K, x1 = 0.7013	–	5.41e-07
[2], 318.15 K, x1 = 0.795	–	4.27e-07
[2], 318.15 K, x1 = 0.8267	–	3.68e-07
[2], 318.15 K, x1 = 0.8822	–	2.81e-07
[2], 318.15 K, x1 = 0.9493	–	1.39e-07

CCCC(=O)OC [methyl butanoate] + CC(C)(C)O
Details	excess molar enthalpy [kcal/mol]	excess molar volume [m3/mol]
[1], 299.15 K, x1 = 0.0487	0.0783	–
[1], 299.15 K, x1 = 0.1046	0.158	–
[1], 299.15 K, x1 = 0.1632	0.234	–
[1], 299.15 K, x1 = 0.2233	0.299	–
[1], 299.15 K, x1 = 0.283	0.351	–
[1], 299.15 K, x1 = 0.3383	0.389	–
[1], 299.15 K, x1 = 0.3915	0.415	–
[1], 299.15 K, x1 = 0.4395	0.431	–
[1], 299.15 K, x1 = 0.4853	0.439	–
[1], 299.15 K, x1 = 0.5221	0.441	–
[1], 299.15 K, x1 = 0.5268	0.441	–
[1], 299.15 K, x1 = 0.5545	0.439	–
[1], 299.15 K, x1 = 0.5745	0.437	–
[1], 299.15 K, x1 = 0.636	0.417	–
[1], 299.15 K, x1 = 0.7063	0.379	–
[1], 299.15 K, x1 = 0.778	0.323	–
[1], 299.15 K, x1 = 0.8552	0.24	–
[1], 299.15 K, x1 = 0.9325	0.129	–
[1], 318.15 K, x1 = 0.0458	0.0698	–
[1], 318.15 K, x1 = 0.1	0.141	–
[1], 318.15 K, x1 = 0.1556	0.207	–
[1], 318.15 K, x1 = 0.2136	0.274	–
[1], 318.15 K, x1 = 0.2734	0.329	–
[1], 318.15 K, x1 = 0.3313	0.37	–
[1], 318.15 K, x1 = 0.3854	0.401	–
[1], 318.15 K, x1 = 0.4221	0.415	–
[1], 318.15 K, x1 = 0.4655	0.427	–
[1], 318.15 K, x1 = 0.5127	0.431	–
[1], 318.15 K, x1 = 0.5632	0.429	–
[1], 318.15 K, x1 = 0.6217	0.416	–
[1], 318.15 K, x1 = 0.6845	0.388	–
[1], 318.15 K, x1 = 0.7505	0.344	–
[1], 318.15 K, x1 = 0.8187	0.28	–
[1], 318.15 K, x1 = 0.884	0.195	–
[1], 318.15 K, x1 = 0.9472	0.102	–
[2], 303.15 K, x1 = 0.0628	–	1.6e-07
[2], 303.15 K, x1 = 0.0928	–	2.36e-07
[2], 303.15 K, x1 = 0.1566	–	3.68e-07
[2], 303.15 K, x1 = 0.194	–	4.3e-07
[2], 303.15 K, x1 = 0.2507	–	5.07e-07
[2], 303.15 K, x1 = 0.3088	–	5.69e-07
[2], 303.15 K, x1 = 0.3502	–	6.04e-07
[2], 303.15 K, x1 = 0.3916	–	6.3e-07
[2], 303.15 K, x1 = 0.453	–	6.49e-07
[2], 303.15 K, x1 = 0.5059	–	6.51e-07
[2], 303.15 K, x1 = 0.5463	–	6.4e-07
[2], 303.15 K, x1 = 0.6022	–	6.17e-07
[2], 303.15 K, x1 = 0.6588	–	5.71e-07
[2], 303.15 K, x1 = 0.698	–	5.37e-07
[2], 303.15 K, x1 = 0.7527	–	4.73e-07
[2], 303.15 K, x1 = 0.7928	–	4.2e-07
[2], 303.15 K, x1 = 0.851	–	3.21e-07
[2], 303.15 K, x1 = 0.9115	–	2.06e-07
[2], 303.15 K, x1 = 0.942	–	1.4e-07
[2], 318.15 K, x1 = 0.1079	–	2.35e-07
[2], 318.15 K, x1 = 0.1326	–	2.91e-07
[2], 318.15 K, x1 = 0.1749	–	3.68e-07
[2], 318.15 K, x1 = 0.2201	–	4.34e-07
[2], 318.15 K, x1 = 0.2751	–	5.03e-07
[2], 318.15 K, x1 = 0.3257	–	5.54e-07
[2], 318.15 K, x1 = 0.3949	–	6.05e-07
[2], 318.15 K, x1 = 0.4521	–	6.3e-07
[2], 318.15 K, x1 = 0.4783	–	6.36e-07
[2], 318.15 K, x1 = 0.55	–	6.31e-07
[2], 318.15 K, x1 = 0.5996	–	6.16e-07
[2], 318.15 K, x1 = 0.6675	–	5.74e-07
[2], 318.15 K, x1 = 0.7318	–	5.24e-07
[2], 318.15 K, x1 = 0.8163	–	4.04e-07
[2], 318.15 K, x1 = 0.8728	–	3.17e-07

COC=O [methyl methanoate] + CC(C)(C)O
299.15 K
Details	excess molar enthalpy, [1] [kcal/mol]	excess molar volume, [2] [m3/mol]
x1 = 0.0627	–	2.95e-07
x1 = 0.0899	0.158	–
x1 = 0.1002	–	4.51e-07
x1 = 0.1302	–	5.67e-07
x1 = 0.1667	–	6.88e-07
x1 = 0.202	0.336	–
x1 = 0.2419	–	8.67e-07
x1 = 0.2873	0.451	–
x1 = 0.319	–	9.88e-07
x1 = 0.3526	–	1.025e-06
x1 = 0.3657	0.528	–
x1 = 0.4033	–	1.061e-06
x1 = 0.4323	0.57	–
x1 = 0.4976	–	1.068e-06
x1 = 0.5033	0.594	–
x1 = 0.5076	–	1.067e-06
x1 = 0.5567	0.594	–
x1 = 0.5726	–	1.036e-06
x1 = 0.6017	0.581	–
x1 = 0.6163	–	9.94e-07
x1 = 0.6287	0.569	–
x1 = 0.6512	–	9.55e-07
x1 = 0.6747	0.538	–
x1 = 0.7222	0.491	8.68e-07
x1 = 0.7382	–	8.34e-07
x1 = 0.7721	0.433	–
x1 = 0.7939	–	7.46e-07
x1 = 0.8111	–	7.04e-07
x1 = 0.8206	0.364	–
x1 = 0.8697	0.282	–
x1 = 0.8902	–	5.01e-07
x1 = 0.9187	0.186	–
x1 = 0.9574	–	2.43e-07
x1 = 0.9598	0.0997	–
